Patent publication US20190175557A1, “COMPOUNDS USEFUL FOR DECREASING INTERFERON LEVEL” (priority 2016, published 2019)

Tests used:
[1] = Solubility of test compounds
[2] = test system: collagen-induced arthritis in DBA1/J mice; assay: Therapeutic collagen-induced arthritis model in DBA1/J mice; assay type: in vivo, mouse; conditions: for average AI (Arthritic Index): maximum AI=16
Procedure: 80 DBA1/J mice (male, 7-8 weeks) was received and placed in quarantine for 3 days with daily inspections. Ear tag mice for individual identification.
Individual mouse weights were recorded. Hind paw thickness were recorded by digital caliper. 80 mice subcutaneous were injected with collagen/CFA emulsion (0.05 ml/mouse; 100 μg/mouse collagens in CFA) using a 1 ml syringe fitted with a 25G needle. Mice returned to cages.
80 mice were boosted with collagen/ICFA emulsion. Then their individual weights were recorded.
Mice were scored for signs of arthritis:
7) Calculate Arthritic Index (AI) by addition of individual paw scores and record.
Mice with an AI score within a range of 2-6 were selected for assignment to groups for therapeutic dosing as in Table 4.
Begin intraperitoneal (IP) dosing once daily (QD) according to Table 4.
The compounds clobenpropit (CB) and IT1t were tested. CB and IT1t were stored at 4° C. […] These compounds were doses 7 days per week (Saturday and Sunday included) daily for 14 days.
Mice were weighed, scored for signs or arthritis, and hind paw thickness is measured by digital caliper three-times weekly (Monday, Wednesday and Friday). Any adverse reactions to treatment were recorded.
Termination: AI score were recorded for each limb. The paw thickness of the hind limbs is measured with digital caliper. Mice were anesthetized and exsanguinated into pre-chilled EDTA-tubes.
2) Plasma was assayed by ELISA for IL-1β, IL-6, TRAIL. Then, all limbs were collected.

H4R = H4R (Homo sapiens, UniProt Q9H3N8); assay type: cell-based
H4R, sequence (Q9H3N8 whole entry): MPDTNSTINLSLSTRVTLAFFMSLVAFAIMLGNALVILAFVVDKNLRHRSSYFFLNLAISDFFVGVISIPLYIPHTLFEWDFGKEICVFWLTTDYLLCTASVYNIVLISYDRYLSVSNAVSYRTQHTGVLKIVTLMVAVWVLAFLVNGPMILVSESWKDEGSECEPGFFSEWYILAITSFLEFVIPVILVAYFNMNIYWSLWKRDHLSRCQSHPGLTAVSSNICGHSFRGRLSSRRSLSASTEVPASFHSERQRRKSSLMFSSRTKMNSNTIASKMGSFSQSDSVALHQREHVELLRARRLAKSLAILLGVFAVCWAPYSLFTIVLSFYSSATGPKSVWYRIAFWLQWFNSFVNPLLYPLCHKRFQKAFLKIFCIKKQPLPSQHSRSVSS

CXCR4 = CXCR4 (Homo sapiens, UniProt P61073); conditions: Jurkat cells, 1 mM, 4° C. for 30 min
CXCR4, sequence (P61073 whole entry): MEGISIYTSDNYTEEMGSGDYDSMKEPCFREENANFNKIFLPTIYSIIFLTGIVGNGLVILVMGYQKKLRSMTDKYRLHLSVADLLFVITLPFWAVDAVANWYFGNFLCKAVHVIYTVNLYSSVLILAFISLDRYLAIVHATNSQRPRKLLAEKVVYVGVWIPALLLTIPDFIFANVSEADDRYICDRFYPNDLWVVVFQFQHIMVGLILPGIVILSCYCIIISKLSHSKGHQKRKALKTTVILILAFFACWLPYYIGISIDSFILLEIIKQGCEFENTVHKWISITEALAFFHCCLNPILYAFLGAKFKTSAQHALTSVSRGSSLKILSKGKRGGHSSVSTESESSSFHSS

Flu-stimulated pDC = assay: IFN-α production and membrane TRAIL by pDC cultured with Flu or Dengue; assay type: cell-based, human
Procedure: PBMC were seeded at 1.10^6/1 mL or purified pDC were seeded at 5.10^4/100 μl and then stimulated with the following viruses: inactivated AT-2 HIV-1MN (CXCR4 co-receptor specific) or AT-2 HIV-1ADA (CCR5 co-receptor specific) at 60 ng/mL p24^CA equivalent (provided by J. D. Lifson (SAIC-NCI, Frederick, Md.)), Infectious human Influenza A/PR/8/34 virus (Flu), titer 1:8192 at dilution 1:1000 or DENV-2 16681 at MOI 10. Infectious HIV-1MN [tissue culture 50% infective dose (TCID50)=[…]] and HIV-1ADA (TCID50=1,000) were used at the same concentration. Purified pDC were pre-treated with amino compounds for 1 hour, following overnight stimulation with virus. Supernatants were collected for cytokine detection. Microvesicles isolated from uninfected cell cultures matched to the culture to produce the virus were used as negative control (Mock).
The compounds were added in pDC culture at 10 μM (or other if specified) 1 hour before stimulation or not of the different viruses. For histamine, X-vivo culture media (Lonza) was used in order to avoid histaminases.
Cells were pre-incubated 1 hour with AMD (20 μM) (Sigma-Aldrich, MO, USA) prior to CB or histamine incubation. pDC were cultured in the presence of […] of the oligodinucleotide A151 (TTAGGG) ODN (Integrated DNA Technologies, Coralville, Iowa). […]

HIV-stimulated pDC [3] = assay: Activation markers and cytokine mRNA in HIV-stimulated pDC (RT-qPCR, flow cytometry); assay type: cell-based, human
flu-exposed human PBMC = assay type: cell-based; conditions: cells pre-treated before Flu exposure, human PBMC
[4] = test system: NK cells activated by K562 cells; assay: IFN-γ, TNF-α and CD107a expression by NK cells activated by K562 cells (flow cytometry); assay type: cell-based; conditions: treated 1 hour, then activated by K562 cells
HIV-stimulated pDC [5] = assay: IFN-α / type I IFN production by HIV-stimulated purified pDC (ELISA); assay type: cell-based, human
[6] = 10 mg/kg IP once daily, at termination
[7] = 30 mg/kg IP once daily, at termination

## NC(=NCc1ccc(Cl)cc1)SCCCc1cnc[nH]1 [Clobenpropit, clobenpropit]
[1]; PBS, aqueous buffer
  solubility: > 50 mg/mL
[1]; water
  solubility: > 50 mg/mL
[2]; 3 mg/kg IP once daily
  reduction in terminal plasma concentration of IL-1β: 64%
  reduction in terminal plasma concentration of IL-6: 49%
  reduction in terminal plasma concentration of TRAIL: had also an effect
[2]; 3 mg/kg IP once daily, Day 28-42, at termination (Day 42)
  inhibition of disease severity: 25%
[2]; 3 mg/kg IP once daily, at termination (Day 42)
  average AI (Arthritic Index): 9.8
[2]; 10 mg/kg IP once daily
  reduction in terminal plasma concentration of IL-1β: 75%
  reduction in terminal plasma concentration of IL-6: 80%
  reduction in terminal plasma concentration of TRAIL: had also an effect
[2]; [6]
  reduction in disease severity: 66%
  average AI (Arthritic Index): 4.4
[2]; 30 mg/kg IP once daily
  reduction in terminal plasma concentration of IL-1β: 82%
  reduction in terminal plasma concentration of IL-6: 82%
  reduction in terminal plasma concentration of TRAIL: significant reduction
[2]; [7]
  reduction in disease severity: 87%
  average AI (Arthritic Index): 1.8
[2]; 3, 10 and 30 mg/kg daily intraperitoneal injection
  disease progression over the dose range: dose-dependent inhibition
H4R
  effect of H4R knock down on inhibitory activity on IFN-α, IFN-β and TRAIL productions by HIV-stimulated pDC: did not block
CXCR4
  binding of the CXCR4 antibody 12G5 on T cells: inhibited
Flu-stimulated pDC
  IFN-α production and membrane TRAIL expression by pDC cultured with Flu and Dengue: strongly inhibited
In vitro
  CC50: 417 ± 6 µM
HIV-stimulated pDC [3]; HIV-1-stimulated pDC, RT-qPCR
  iNOS or IL-15 gene expression: neither CB nor FFN-511 affected
HIV-stimulated pDC [3]; RT-qPCR profiling, normalized to RPL13A
  transcription of virus-induced genes (TRAIL, IFNs, IL6, IL8, IL10, CXCL10, ISG56) induced in pDC by HIV-1: dramatically inhibited
flu-exposed human PBMC
  IFN-α/β and IFN-λ2/3 mRNA levels: significantly reduced
[4]
  IFN-γ, TNF-α and CD107a expression by NK cells: decrease
HIV-stimulated pDC [5]; after 9 h of incubation
  IFN-α production kinetics by HIV-stimulated pDC: inhibited
HIV-stimulated pDC [5]; purified pDC, 10 μM
  inhibitory effect on pDC activation / IFN-α production by HIV-1: stronger inhibitory effect than histamine
HIV-stimulated pDC [5]; purified pDC, 10 μM, ELISA
  reduction of levels of IFN-α secreted following HIV stimulation: approximately 90%
